16 molecules from patent US10221177B2 (HYDRA BIOSCIENCES, INC., priority 2014, dated 2019) can be followed below.

In experiment [1] the target is human TRPA1 (Homo sapiens (Human), UniProt O75762). Kind of experiment: In vitro inhibition of human TRPA1, whole cell patch configuration. The following applies: current activation 10 μM AITC, tested concentrations 320 pM to 3.2 μM, read-out: hTRPA1 IC50. The format is cell-based. Summed up: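 Compound antagonism measured from voltage ramps (±100 or ±80 mV, 400 ms, every 4 s from −40 mV), analysed at −80 and 80 mV, or at constant −60 mV. HEPES-buffered NaCl bath, pH 7.4, EGTA or 2 mM Ca2+; temperature set by perfusion, within ±2° C; no junction-potential correction.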

The subject of experiment [2] is formalin-induced pain behaviors in the rat. Nature of the experiment: Formalin-induced pain test (formalin model), duration of pain behaviors. The format is in vivo. The protocol: Exemplary compounds of the invention were tested in the formalin-induced pain test reported by Dubuisson et al., Pain 1977 December; 4(2):161-74 (incorporated herein by reference in its entirety). Briefly, dilute formalin (50 μL of 3% formalin) was injected into the plantar surface of the hind paw of a rat. […] The individual responsible for counting the pain behaviors in a particular study was blinded to the treatment groups.
The initial phase (Phase I: 0-5 min) is thought to have a significant component that is dependent upon direct activation of afferent fibers by formalin and functional TRPA1 (McNamara et al., 2007).
Investigators studied oral administration of compounds of the invention at the doses presented in Table 3 on pain behaviors in the formalin model in the rat. Compounds were formulated as solutions in water with various solvents and excipients including dimethyl sulfoxide (DMSO), polyethylene glycol (15)-hydroxystearate (Solutol®, Sigma-Aldrich), caprylocaproyl macrogol-8 glyceride (Labrasol®, Sigma-Aldrich), polysorbate-80 (Tween®-80, Sigma-Aldrich), and polyoxyl 35 castor oil (Cremophor® EL, BASF Corp.); or suspensions in methylcellulose as indicated in Table 3. Animals were dosed orally with the vehicle, or compounds of the invention one hour prior to intraplantar formalin. […] A decrease over Vehicle indicates a positive result. P values, when indicated, indicate significance compared Vehicle.

[3] abbreviates: 30 mg/kg PO one hour prior to formalin, solution in 4% DMSO, 5% Tween-80, 20% Cremophor EL, 71% water.
[4] abbreviates: 10 mg/kg PO one hour prior to formalin, solution in 4% DMSO, 5% Tween-80, 20% Cremophor EL, 71% water.
Where [5] appears, read: 1 mg/kg PO one hour prior to formalin, solution in 4% DMSO, 5% Tween-80, 20% Cremophor EL, 71% water.
Setting [6] is: 3 mg/kg PO one hour prior to formalin, solution in 4% DMSO, 5% Tween-80, 20% Cremophor EL, 71% water.
Setting [7] is: 30 mg/kg PO one hour prior to formalin, solution in 8% DMSO and 92% Labrasol.
[8] abbreviates: 1 mpk PO one hour prior to formalin, solution in 4% DMSO, 10% Solutol, 86% water.
Setting [9] is: 3 mpk PO one hour prior to formalin, solution in 4% DMSO, 10% Solutol, 86% water.
Setting [10] is: 10 mpk PO one hour prior to formalin, solution in 4% DMSO, 10% Solutol, 86% water.

Chain of human TRPA1 (O75762 whole entry, the tested form may be a part): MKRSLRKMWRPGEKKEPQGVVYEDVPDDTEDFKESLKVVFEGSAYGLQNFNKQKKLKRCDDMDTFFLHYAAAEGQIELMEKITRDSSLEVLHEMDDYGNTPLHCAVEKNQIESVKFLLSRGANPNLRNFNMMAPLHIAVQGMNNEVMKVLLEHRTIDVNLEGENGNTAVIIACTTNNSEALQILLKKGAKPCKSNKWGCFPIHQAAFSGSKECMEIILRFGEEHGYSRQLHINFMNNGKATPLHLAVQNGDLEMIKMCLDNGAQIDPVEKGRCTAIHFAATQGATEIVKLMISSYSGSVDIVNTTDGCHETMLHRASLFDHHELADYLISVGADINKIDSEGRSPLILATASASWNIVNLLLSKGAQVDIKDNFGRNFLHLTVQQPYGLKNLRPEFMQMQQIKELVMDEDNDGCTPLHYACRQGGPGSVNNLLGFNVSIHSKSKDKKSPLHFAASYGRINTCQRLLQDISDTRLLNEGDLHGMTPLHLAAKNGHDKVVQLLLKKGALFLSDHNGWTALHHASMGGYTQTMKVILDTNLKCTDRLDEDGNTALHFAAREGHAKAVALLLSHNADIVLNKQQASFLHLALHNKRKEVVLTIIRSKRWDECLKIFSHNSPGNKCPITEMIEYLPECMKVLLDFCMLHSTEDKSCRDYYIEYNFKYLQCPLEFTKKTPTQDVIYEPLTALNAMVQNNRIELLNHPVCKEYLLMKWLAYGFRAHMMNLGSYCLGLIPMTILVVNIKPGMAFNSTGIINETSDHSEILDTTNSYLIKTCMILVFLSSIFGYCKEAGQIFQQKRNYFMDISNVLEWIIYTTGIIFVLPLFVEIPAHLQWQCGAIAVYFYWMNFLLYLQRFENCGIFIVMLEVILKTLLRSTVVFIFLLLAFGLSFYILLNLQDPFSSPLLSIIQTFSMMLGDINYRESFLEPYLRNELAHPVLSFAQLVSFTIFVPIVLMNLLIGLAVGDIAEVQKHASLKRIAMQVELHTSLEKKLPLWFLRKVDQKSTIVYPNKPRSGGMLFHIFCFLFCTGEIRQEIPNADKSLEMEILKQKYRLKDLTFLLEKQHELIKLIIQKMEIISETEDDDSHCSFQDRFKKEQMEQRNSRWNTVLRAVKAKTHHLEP

`C[C@@H](C(=O)Nc1cccc(-c2cnc(N3CC4CC4C3)nc2)n1)n1cnc2c1c(=O)n(CC#N)c(=O)n2C` (stereo partly drawn) [Compound 149, (2S)—N-(6-(2-(3-azabicyclo[3.1.0]hexan-3-yl)pyrimidin-5-yl)pyridin-2-yl)-2-(1-(cyanomethyl)-3-methyl-2,6-dioxo-2,3-dihydro-1H-purin-7(6H)-yl)propanamide]: the IC50 in experiment [1] turned out to be 2 nM. In experiment [2] (setting [3]), the “Duration (0-2 Minutes) Average” value came out at 41.9 s and the “Duration (0-5 Minutes) Average” value worked out at 153.0 s.

As for `C[C@@H](C(=O)Nc1cncc(-c2cnc(N3CC4CC4C3)nc2)n1)n1cnc2c1c(=O)n(CC#N)c(=O)n2C` (some centres unmarked) [Compound 144], the IC50 in experiment [1] came to 6 nM. In addition, in experiment [2] (setting [4]), the “Duration (0-2 Minutes) Average” value is 64.6 s and the “Duration (0-5 Minutes) Average” value was determined as 181.3 s.

With `CCC(=O)Cn1c(=O)c2c(ncn2[C@@H](C)C(=O)Nc2cccc(-c3cnc(C)c(C(F)(F)F)c3)n2)n(C)c1=O` [Compound 135, (S)-2-(3-methyl-2,6-dioxo-1-(2-oxobutyl)-2,3-dihydro-1H-purin-7(6H)-yl)-N-(6′-methyl-5′-(trifluoromethyl)-[2,3′-bipyridin]-6-yl)propanamide], the IC50 in experiment [1] was found to be 4 nM. Moreover, the “Duration (0-2 Minutes) Average” value worked out at 91.1 s in experiment [2] (setting [5]), 80.3 s in experiment [2] (setting [6]) and 74.3 s in experiment [2] (setting [4]). The “Duration (0-5 Minutes) Average” value amounted to 153.3 s in experiment [2] (setting [5]), 120.3 s in experiment [2] (setting [6]) and 139.0 s in experiment [2] (setting [4]).

In the case of `Cc1nc(Cn2c(=O)c3c(ncn3[C@@H](C)C(=O)Nc3ccnc(-c4cnc(C)c(C(F)(F)F)c4)n3)n(C)c2=O)no1` [Compound 172, (S)-2-(3-methyl-1-((5-methyl-1,2,4-oxadiazol-3-yl)methyl)-2,6-dioxo-2,3-dihydro-1H-purin-7(6H)-yl)-N-(2-(6-methyl-5-(trifluoromethyl)pyridin-3-yl)pyrimidin-4-yl)propanamide], the IC50 in experiment [1] came to 2 nM. Also, the “Duration (0-2 Minutes) Average” value was found to be 88.6 s in experiment [2] (setting [5]), 91.1 s in experiment [2] (setting [6]) and 83.1 s in experiment [2] (setting [4]). In addition, the entries for the “Duration (0-5 Minutes) Average” value in experiment [2] (setting [5]), in experiment [2] (setting [6]) and in experiment [2] (setting [4]) were 151.0 s, 149.0 s and 151.6 s, respectively.

Consider `Cc1nc(Cn2c(=O)c3c(ncn3CC(=O)Nc3csc(-c4cnc(C(F)(F)F)c(C)c4)n3)n(C)c2=O)no1` [Compound 253, 2-(3-methyl-1-((5-methyl-1,2,4-oxadiazol-3-yl)methyl)-2,6-dioxo-2,3-dihydro-1H-purin-7(6H)-yl)-N-(2-(5-methyl-6-(trifluoromethyl)pyridin-3-yl)thiazol-4-yl)acetamide], for which the IC50 in experiment [1] was 20 nM. The “Duration (0-2 Minutes) Average” value in experiment [2] (setting [5]) amounted to 79.3 s; in experiment [2] (setting [6]), 78.8 s; in experiment [2] (setting [4]) it was 76.4 s. In addition, the “Duration (0-5 Minutes) Average” value in experiment [2] (setting [5]) worked out at 126.4 s; in experiment [2] (setting [6]), 119.6 s; in experiment [2] (setting [4]) it was 116.0 s.

Consider `Cc1cc(Cn2c(=O)c3c(ncn3[C@@H](C)C(=O)Nc3cccc(-c4cnc(C(F)(F)F)nc4)n3)n(C)c2=O)no1` [Compound 15, (S)-2-(3-methyl-1-((5-methylisoxazol-3-yl)methyl)-2,6-dioxo-2,3-dihydro-1H-purin-7(6H)-yl)-N-(6-(2-(trifluoromethyl)pyrimidin-5-yl)pyridin-2-yl)propanamide], for which, in experiment [2] (setting [7]), the “Duration (0-2 Minutes) Average” value came to 76.00 s and the “Duration (0-5 Minutes) Average” value is 190.20 s.

As to `Cc1cc(Cn2c(=O)c3c(ncn3[C@@H](C)C(=O)Nc3cccc(-c4ccc(C(F)(F)F)nc4)n3)n(C)c2=O)no1` [Compound 7, (S)-2-(3-methyl-1-((5-methylisoxazol-3-yl)methyl)-2,6-dioxo-2,3-dihydro-1H-purin-7(6H)-yl)-N-(6′-(trifluoromethyl)-[2,3′-bipyridin]-6-yl)propanamide], the half-inhibitory concentration (IC50) in experiment [1] was found to be 5 nM. For the same molecule, the “Duration (0-2 Minutes) Average” value in experiment [2] (setting [8]) amounted to 82.38 s; in experiment [2] (setting [9]), 78.25 s; in experiment [2] (setting [10]), 67.00 s. The “Duration (0-5 Minutes) Average” value in experiment [2] (setting [8]) came out at 200.38 s; in experiment [2] (setting [9]), 173.75 s; in experiment [2] (setting [10]), 170.50 s.

Regarding `C[C@@H](C(=O)Nc1ccnc(-c2cnc(N3CC4CC4C3)nc2)n1)n1cnc2c1c(=O)n(CC#N)c(=O)n2C` (stereo partly drawn) [Compound 155, (2S)—N-(2′-(3-azabicyclo[3.1.0]hexan-3-yl)-2,5′-bipyrimidin-4-yl)-2-(1-(cyanomethyl)-3-methyl-2,6-dioxo-2,3-dihydro-1H-purin-7(6H)-yl)propanamide], the half-inhibitory concentration (IC50) in experiment [1] was determined as 5 nM. Besides, in experiment [2] (setting [4]), the “Duration (0-2 Minutes) Average” value stood at 59.4 s and the “Duration (0-5 Minutes) Average” value stood at 182.5 s.

In the case of `Cc1nc(Cn2c(=O)c3c(ncn3[C@@H](C)C(=O)Nc3cncc(-c4cnc(C)c(C(F)(F)F)c4)n3)n(C)c2=O)no1` [Compound 170, (S)-2-(3-methyl-1-((5-methyl-1,2,4-oxadiazol-3-yl)methyl)-2,6-dioxo-2,3-dihydro-1H-purin-7(6H)-yl)-N-(6-(6-methyl-5-(trifluoromethyl)pyridin-3-yl)pyrazin-2-yl)propanamide], in experiment [1], the 50% inhibitory concentration (IC50) came out at 27 nM.

As for `Cc1cc(Cn2c(=O)c3c(ncn3CC(=O)Nc3cccc(-c4cnc(C)c(C(F)(F)F)c4)n3)n(C)c2=O)no1` [Compound 238, 2-(3-methyl-1-((5-methylisoxazol-3-yl)methyl)-2,6-dioxo-2,3-dihydro-1H-purin-7(6H)-yl)-N-(6′-methyl-5′-(trifluoromethyl)-[2,3′-bipyridin]-6-yl)acetamide], the 50% inhibitory concentration (IC50) in experiment [1] worked out at 4 nM.

With `Cc1cc(Cn2c(=O)c3c(ncn3[C@@H](C)C(=O)Nc3cncc(-c4cnc(C)c(C(F)(F)F)c4)n3)n(C)c2=O)no1` [Compound 128, (S)-2-(3-methyl-1-((5-methylisoxazol-3-yl)methyl)-2,6-dioxo-2,3-dihydro-1H-purin-7(6H)-yl)-N-(6-(6-methyl-5-(trifluoromethyl)pyridin-3-yl)pyrazin-2-yl)propanamide], the 50% inhibitory concentration (IC50) in experiment [1] came to 4 nM.

Turning to `CCN(c1ccc(NC(=O)Cn2cnc3c2c(=O)n(Cc2cc(C)on2)c(=O)n3C)cc1)C(F)(F)F` [Compound 211, N-(4-(ethyl(trifluoromethyl)amino)phenyl)-2-(3-methyl-1-((5-methylisoxazol-3-yl)methyl)-2,6-dioxo-2,3-dihydro-1H-purin-7(6H)-yl)acetamide], in experiment [1], the IC50 was over 1000 nM.

`Cc1ncc(-c2cccc(NC(=O)Cn3cnc4c3c(=O)n(CCCO)c(=O)n4C)n2)cc1C(F)(F)F` [Compound 236, 2-(1-(3-hydroxypropyl)-3-methyl-2,6-dioxo-2,3-dihydro-1H-purin-7(6H)-yl)-N-(6′-methyl-5′-(trifluoromethyl)-[2,3′-bipyridin]-6-yl)acetamide]: in experiment [1], the IC50 worked out at 711 nM.

In the case of `Cc1nc(Cn2c(=O)c3c(ncn3CC(=O)Nc3cccc(-c4cnc(C)c(C(F)(F)F)c4)n3)n(C)c2=O)no1` [Compound 240], in experiment [1], the half-maximal inhibitory concentration (IC50) was determined as 7 nM.

Take `Cc1ncc(-c2cccc(NC(=O)[C@H](C)n3cnc4c3c(=O)n(Cc3ccon3)c(=O)n4C)n2)cc1C(F)(F)F` [Compound 136, (S)-2-(1-(isoxazol-3-ylmethyl)-3-methyl-2,6-dioxo-2,3-dihydro-1H-purin-7(6H)-yl)-N-(6′-methyl-5′-(trifluoromethyl)-[2,3′-bipyridin]-6-yl)propanamide]: the half-maximal inhibitory concentration (IC50) in experiment [1] stood at 3 nM.

Turning to `CC(=O)Cn1c(=O)c2c(ncn2[C@@H](C)C(=O)Nc2cncc(-c3ccc(N4CC5CC5C4)nc3)n2)n(C)c1=O` (stereo partly drawn) [Compound 41, (2S)—N-(6-(6-(3-azabicyclo[3.1.0]hexan-3-yl)pyridin-3-yl)pyrazin-2-yl)-2-(3-methyl-2,6-dioxo-1-(2-oxopropyl)-2,3-dihydro-1H-purin-7(6H)-yl)propanamide], in experiment [1], the 50% inhibitory concentration (IC50) was determined as 12 nM.

Broadly, the IC50 is the concentration that inhibits the measured activity by half.
